Measurements published in patent publication US20210395313A1, “PEPTIDE PAC1 ANTAGONISTS” (AMGEN INC., priority 2017, published 2021).
Where a SMILES comes first, the peptide text is derived from it. Bridges are numbered along the chain shown (N, C = ends). Where no end group is shown, it is not given here.

Columns and labels:
human PAC1 receptor = biological target: T1, human PAC1 receptor (Homo sapiens, UniProt P41586); assay: LANCE Ultra cAMP accumulation antagonist assay in SHSY-5Y cells; format: cell-based;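 also: inhibition of cAMP accumulation evoked by PAC1 agonist at its EC80 in SHSY-5Y cells endogenously expressing receptor, 30 min preincubation then 15 min agonist, TR-FRET readout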
T1 construct: SHSY-5Y (human neuroblastoma cell line) and RG-2 (rat glioma cell line) cells endogenously express human and rat PAC1 receptors, respectively; endogenous in cells; host or cells: SHSY-5Y human neuroblastoma cells
T1 sequence (P41586 21-468): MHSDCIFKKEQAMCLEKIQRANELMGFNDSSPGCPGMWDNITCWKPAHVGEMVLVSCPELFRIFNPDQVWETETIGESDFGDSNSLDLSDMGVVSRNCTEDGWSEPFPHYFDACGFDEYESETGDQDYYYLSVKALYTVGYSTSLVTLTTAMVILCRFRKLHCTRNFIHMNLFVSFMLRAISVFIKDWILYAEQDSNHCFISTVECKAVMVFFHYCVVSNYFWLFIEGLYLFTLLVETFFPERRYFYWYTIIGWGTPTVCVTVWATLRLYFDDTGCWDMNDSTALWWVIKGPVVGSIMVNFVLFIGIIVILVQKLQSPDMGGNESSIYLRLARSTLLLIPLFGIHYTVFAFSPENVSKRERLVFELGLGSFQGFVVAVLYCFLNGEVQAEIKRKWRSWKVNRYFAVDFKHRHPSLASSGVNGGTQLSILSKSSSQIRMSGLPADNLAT

rat PAC1 receptor = biological target: T2, rat PAC1 receptor (Rattus norvegicus, UniProt P32215); assay: LANCE Ultra cAMP accumulation antagonist assay in RG-2 cells; format: cell-based;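 also: RG-2 rat glioma cells endogenously expressing PAC1, test peptide preincubated 30 min, then PAC1 agonist added at its EC80 for 15 min, cAMP accumulation read by LANCE Ultra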
T2 construct: SHSY-5Y (human neuroblastoma cell line) and RG-2 (rat glioma cell line) cells endogenously express human and rat PAC1 receptors, respectively; endogenous in cells; host or cells: RG-2 rat glioma cells
T2 sequence (P32215 20-523): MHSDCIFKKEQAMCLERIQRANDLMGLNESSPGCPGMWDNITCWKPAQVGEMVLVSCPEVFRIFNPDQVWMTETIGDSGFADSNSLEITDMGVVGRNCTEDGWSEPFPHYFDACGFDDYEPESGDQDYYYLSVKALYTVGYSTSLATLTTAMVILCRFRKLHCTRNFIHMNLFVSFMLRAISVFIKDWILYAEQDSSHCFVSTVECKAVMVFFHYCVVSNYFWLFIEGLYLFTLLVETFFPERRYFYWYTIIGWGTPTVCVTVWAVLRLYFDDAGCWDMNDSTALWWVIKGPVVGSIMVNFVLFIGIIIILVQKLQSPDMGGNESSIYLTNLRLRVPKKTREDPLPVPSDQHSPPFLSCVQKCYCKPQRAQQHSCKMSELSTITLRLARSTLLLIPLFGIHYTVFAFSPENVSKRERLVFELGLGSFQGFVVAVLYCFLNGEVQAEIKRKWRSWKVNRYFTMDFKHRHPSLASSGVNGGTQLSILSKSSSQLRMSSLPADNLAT

CDATCQFRKAIDDCQKQAHHSNVPGNSFKECMKQKKKEFKAGK (disulfide 1-5, 14-31) [compound 363]
IC50 (human PAC1 receptor): 1 to 100 nM

CC[C@H](C)[C@H](NC(=O)[C@H](C)NC(=O)[C@H](CCCCN)NC(=O)[C@H](CCCNC(=N)N)NC(=O)[C@H](Cc1ccccc1)NC(=O)[C@H](CCC(N)=O)NC(=O)[C@@H]1CSSC[C@H](N)C(=O)N[C@@H](CC(=O)O)C(=O)N[C@@H](C)C(=O)N[C@@H]([C@@H](C)O)C(=O)N1)C(=O)N[C@@H](CC(=O)O)C(=O)N[C@@H](CC(=O)O)C(=O)N[C@H]1CSSC[C@@H](C(=O)N[C@@H](CCSC)C(=O)N[C@@H](CCCCN)C(=O)N[C@@H](CCC(N)=O)C(=O)N[C@@H](CCCCN)C(N)=O)NC(=O)[C@H](CCC(=O)O)NC(=O)[C@H](CCCCN)NC(=O)[C@H](Cc2ccccc2)NC(=O)[C@H](C(C)C)NC(=O)[C@H](CO)NC(=O)[C@H](CC(N)=O)NC(=O)CNC(=O)[C@@H]2CCCN2C(=O)[C@H](C(C)C)NC(=O)[C@H](CC(N)=O)NC(=O)[C@H](CO)NC(=O)[C@H](Cc2c[nH]cn2)NC(=O)[C@H](Cc2c[nH]cn2)NC(=O)[C@H](C)NC(=O)[C@H](CCC(N)=O)NC(=O)[C@H](CCCCN)NC(=O)[C@H](CCC(N)=O)NC1=O [compound 413]
IC50 (human PAC1 receptor): 1 to 100 nM

CDATCQFRKAIDDCQKQAHHSNVPGSVFKECMKQKKKEFKAGK (disulfide 1-5, 14-31) [compound 364]
IC50 (human PAC1 receptor): 1 to 100 nM

CDATCQFRKAIDDCQKQAHHSNVGNSVFKECMKQKKKEFKAGK (disulfide 1-5, 14-31) [compound 398]
IC50 (human PAC1 receptor): 1 to 100 nM

CC[C@H](C)[C@H](NC(=O)[C@H](C)NC(=O)[C@H](CCCCN)NC(=O)[C@H](CCCNC(=N)N)NC(=O)[C@H](Cc1ccccc1)NC(=O)[C@H](CCC(N)=O)NC(=O)[C@@H]1CSSC[C@H](N)C(=O)N[C@@H](CC(=O)O)C(=O)N[C@@H](C)C(=O)N[C@@H]([C@@H](C)O)C(=O)N1)C(=O)N[C@@H](CC(=O)O)C(=O)N[C@@H](CC(=O)O)C(=O)N[C@H]1CSSC[C@@H](C(=O)N[C@@H](CCSC)C(=O)N[C@@H](CCCCN)C(=O)N[C@@H](CCC(N)=O)C(=O)N[C@@H](CCCCN)C(=O)N[C@@H](CCCCN)C(=O)N[C@@H](CCCCN)C(=O)N[C@@H](CCC(=O)O)C(=O)N[C@@H](Cc2c[nH]c3ccccc23)C(=O)N[C@@H](CCCCN)C(=O)N[C@@H](C)C(=O)NCC(N)=O)NC(=O)[C@H](C)NC(=O)[C@H](CCCCN)NC(=O)[C@H](Cc2ccccc2)NC(=O)[C@H](C(C)C)NC(=O)[C@H](CO)NC(=O)[C@H](CO)NC(=O)[C@H](Cc2c[nH]cn2)NC(=O)[C@H](CCCCN)NC(=O)[C@H](C)NC(=O)[C@H](CCC(N)=O)NC(=O)[C@H](CCCNC(=N)N)NC(=O)[C@H](C)NC1=O [compound 434] (H-CDATCQFRKAIDDCARQAKHSSVFKACMKQKKKEWKAG-NH2; disulfide 1-5, 14-27)
IC50 (rat PAC1 receptor): < 0.01 nM

CC[C@H](C)[C@H](NC(=O)[C@H](C)NC(=O)[C@H](CCCCN)NC(=O)[C@H](CCCNC(=N)N)NC(=O)[C@H](Cc1ccccc1)NC(=O)[C@H](CCC(N)=O)NC(=O)[C@@H]1CSSC[C@H](N)C(=O)N[C@@H](CC(=O)O)C(=O)N[C@@H](C)C(=O)N[C@@H]([C@@H](C)O)C(=O)N1)C(=O)N[C@@H](CC(=O)O)C(=O)N[C@@H](CC(=O)O)C(=O)N[C@H]1CSSC[C@@H](C(=O)N[C@@H](CCSC)C(=O)N[C@@H](CCCCN)C(=O)N[C@@H](CCC(N)=O)C(=O)N[C@@H](CCCCN)C(=O)N[C@@H](CCCCN)C(=O)N[C@@H](CCCCN)C(=O)N[C@@H](CCC(=O)O)C(=O)N[C@@H](Cc2c[nH]c3ccccc23)C(=O)N[C@@H](CCCCN)C(=O)N[C@@H](C)C(=O)NCC(=O)N[C@@H](Cc2c[nH]cn2)C(=O)O)NC(=O)[C@H](C)NC(=O)[C@H](CCCCN)NC(=O)[C@H](Cc2ccccc2)NC(=O)[C@H](C)NC(=O)[C@H](C)NC1=O [compound 443] (H-CDATCQFRKAIDDCAAFKACMKQKKKEWKAGH-OH; disulfide 1-5, 14-20)
IC50 (rat PAC1 receptor): > 100 nM

GSCDATCQFRKAIDDCQKQAHHSNVPGSVFKACMKQKKKEFKAG-NH2 (disulfide 3-7, 16-33) [compound 185]
IC50 (rat PAC1 receptor): 0.01 to 1 nM

MCDATCQFRKAIDDCQKQAHHSNVPGSVFKACMKQKKKEFKAGHHHHHH (disulfide 2-6, 15-32) [compound 204]
IC50 (rat PAC1 receptor): 0.01 to 1 nM

CC[C@H](C)[C@H](NC(=O)[C@H](C)NC(=O)[C@H](CCCCN)NC(=O)[C@H](CCCNC(=N)N)NC(=O)[C@H](Cc1ccccc1)NC(=O)[C@H](CCC(N)=O)NC(=O)[C@@H]1CSSC[C@H](N)C(=O)N[C@@H](CC(=O)O)C(=O)N[C@@H](C)C(=O)N[C@@H]([C@@H](C)O)C(=O)N1)C(=O)N[C@@H](CC(=O)O)C(=O)N[C@@H](CC(=O)O)C(=O)N[C@H]1CSSC[C@@H](C(=O)N[C@@H](CC(C)C)C(=O)N[C@@H](CCCCN)C(=O)N[C@@H](CCC(N)=O)C(=O)N[C@@H](CCCCN)C(=O)N[C@@H](CCCCN)C(=O)N[C@@H](CCCCN)C(=O)N[C@@H](CCC(=O)O)C(=O)N[C@@H](Cc2c[nH]c3ccccc23)C(=O)N[C@@H](CCCCN)C(=O)N[C@@H](C)C(=O)NCC(N)=O)NC(=O)[C@H](C)NC(=O)[C@H](CCCCN)NC(=O)[C@H](Cc2ccccc2)NC(=O)[C@H](C(C)C)NC(=O)[C@H](CO)NC(=O)[C@H](CO)NC(=O)[C@H](Cc2c[nH]cn2)NC(=O)[C@H](Cc2ccc(O)cc2)NC(=O)[C@H](C)NC(=O)[C@H](CCC(N)=O)NC(=O)[C@H](CCCNC(=N)N)NC(=O)[C@H](C)NC1=O [compound 435] (H-CDATCQFRKAIDDCARQAYHSSVFKACLKQKKKEWKAG-NH2; disulfide 1-5, 14-27)
IC50 (rat PAC1 receptor): 0.01 to 1 nM

CC[C@H](C)[C@H](NC(=O)[C@H](C)NC(=O)[C@H](CCCCN)NC(=O)[C@H](CCCNC(=N)N)NC(=O)[C@H](Cc1ccccc1)NC(=O)[C@H](CCC(N)=O)NC(=O)[C@@H]1CSSC[C@H](N)C(=O)N[C@@H](CC(=O)O)C(=O)N[C@@H](C)C(=O)N[C@@H]([C@@H](C)O)C(=O)N1)C(=O)N[C@@H](CC(=O)O)C(=O)N[C@@H](CC(=O)O)C(=O)N[C@H]1CSSC[C@@H](C(=O)N[C@@H](CCSC)C(=O)N[C@@H](CCCCN)C(=O)N[C@@H](CCC(N)=O)C(=O)N[C@@H](CCCCN)C(=O)N[C@@H](CCCCN)C(=O)N[C@@H](CCCCN)C(=O)N[C@@H](CCC(=O)O)C(=O)N[C@@H](Cc2c[nH]c3ccccc23)C(=O)N[C@@H](CCCCN)C(=O)N[C@@H](C)C(=O)NCC(=O)N[C@@H](Cc2c[nH]cn2)C(=O)O)NC(=O)[C@H](C)NC(=O)[C@H](CCCCN)NC(=O)[C@H](Cc2ccccc2)NC(=O)[C@H](Cc2ccc(O)cc2)NC(=O)[C@H](C)NC(=O)[C@H](CCC(N)=O)NC(=O)[C@H](CCCNC(=N)N)NC(=O)[C@H](C)NC1=O [compound 448] (H-CDATCQFRKAIDDCARQAYFKACMKQKKKEWKAGH-OH; disulfide 1-5, 14-23)
IC50 (rat PAC1 receptor): < 0.01 nM

CC[C@H](C)[C@@H]1NC(=O)[C@H](C)NC(=O)[C@H](CCCCN)NC(=O)[C@H](CCCNC(=N)N)NC(=O)[C@H](Cc2ccccc2)NC(=O)[C@H](CCC(N)=O)NC(=O)[C@H](CO)NC(=O)[C@H]([C@@H](C)O)NC(=O)[C@H](C)NC(=O)[C@H](CC(=O)O)NC(=O)[C@@H](N)CSSC[C@@H](C(=O)N[C@@H](Cc2c[nH]cn2)C(=O)O)NC(=O)[C@H](C)NC(=O)[C@H](CCCCN)NC(=O)[C@H](Cc2c[nH]c3ccccc23)NC(=O)[C@H](CCC(=O)O)NC(=O)[C@H](CCCCN)NC(=O)[C@H](CCCCN)NC(=O)[C@H](CCCCN)NC(=O)[C@H](CCC(N)=O)NC(=O)[C@H](CCCCN)NC(=O)[C@H](CCSC)NC(=O)[C@H](CO)NC(=O)[C@H](C)NC(=O)[C@H](CCCCN)NC(=O)[C@H](Cc2ccccc2)NC(=O)[C@H](C)NC(=O)[C@H](CO)NC(=O)[C@H](CC(=O)O)NC(=O)[C@H](CC(=O)O)NC1=O [compound 442] (H-CDATSQFRKAIDDSAFKASMKQKKKEWKACH-OH; disulfide 1-30)
IC50 (rat PAC1 receptor): > 100 nM
